Data: patent US20090247559A1 (Exelixis, Inc., priority 2007, published 2009)
Counter-ions that a name gives are not always drawn. Like-named read-outs stand apart in the source and are kept apart here.

How the values were obtained:
[1] = target: PIM (PIM-1, PIM-2, and/or PIM-3); test: PIM-1, PIM-2 and PIM-3 inhibition, biochemical chemiluminescence assays (Kinase Glo, IC50 determination); conditions: Table 1 activity class; PIM refers to PIM-1, PIM-2, and/or PIM-3; read-out: PIM IC50 (Activity B)
CDC7 = CDC7 (Homo sapiens, UniProt O00311); test: CDC7 inhibition, biochemical chemiluminescence assay (Kinase Glo, IC50 determination)
Chain of CDC7 (O00311 whole entry): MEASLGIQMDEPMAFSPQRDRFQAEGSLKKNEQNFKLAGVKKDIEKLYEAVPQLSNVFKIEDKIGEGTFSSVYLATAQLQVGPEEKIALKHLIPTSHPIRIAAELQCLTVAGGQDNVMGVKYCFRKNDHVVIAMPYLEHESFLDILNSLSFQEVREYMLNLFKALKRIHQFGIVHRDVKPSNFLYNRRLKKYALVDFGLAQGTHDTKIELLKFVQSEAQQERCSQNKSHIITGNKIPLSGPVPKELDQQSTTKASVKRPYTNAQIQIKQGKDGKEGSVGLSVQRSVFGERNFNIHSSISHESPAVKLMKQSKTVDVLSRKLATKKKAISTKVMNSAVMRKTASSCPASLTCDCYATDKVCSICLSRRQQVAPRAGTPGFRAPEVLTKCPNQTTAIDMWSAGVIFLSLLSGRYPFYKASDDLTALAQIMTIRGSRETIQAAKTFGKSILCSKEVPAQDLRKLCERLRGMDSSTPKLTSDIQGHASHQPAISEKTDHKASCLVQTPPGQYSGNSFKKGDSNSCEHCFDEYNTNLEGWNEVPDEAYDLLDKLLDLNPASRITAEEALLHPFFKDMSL
Chain of CDC7 (Q9UBU7 whole entry partner): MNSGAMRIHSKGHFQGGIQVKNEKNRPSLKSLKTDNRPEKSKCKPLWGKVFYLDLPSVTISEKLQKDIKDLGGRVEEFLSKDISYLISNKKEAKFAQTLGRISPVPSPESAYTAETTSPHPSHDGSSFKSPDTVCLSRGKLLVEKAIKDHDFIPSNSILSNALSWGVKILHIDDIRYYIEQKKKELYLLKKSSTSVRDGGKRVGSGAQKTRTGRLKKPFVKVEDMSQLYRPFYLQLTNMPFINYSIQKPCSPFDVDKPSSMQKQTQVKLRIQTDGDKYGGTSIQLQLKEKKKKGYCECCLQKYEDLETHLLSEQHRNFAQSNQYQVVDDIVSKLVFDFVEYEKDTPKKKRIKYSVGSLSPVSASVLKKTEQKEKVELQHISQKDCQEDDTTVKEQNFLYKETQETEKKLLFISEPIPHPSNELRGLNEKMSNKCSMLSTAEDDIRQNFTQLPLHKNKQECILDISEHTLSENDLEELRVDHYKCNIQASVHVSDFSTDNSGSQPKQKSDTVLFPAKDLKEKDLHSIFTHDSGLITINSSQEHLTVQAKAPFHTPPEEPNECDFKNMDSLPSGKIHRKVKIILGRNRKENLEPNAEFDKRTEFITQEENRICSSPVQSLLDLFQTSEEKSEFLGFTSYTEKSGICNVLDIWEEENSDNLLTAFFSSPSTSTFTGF
Outline: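 CDC7 enzyme preincubated with compound 10 min at ambient temperature, then ATP mix in Tris Base added; reaction 90 min at 24-27 °C. Remaining ATP quantified by Kinase Glo luminescence to give IC50.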

CK2 = CK2 (Homo sapiens, UniProt P68400); test: CK2 inhibition, biochemical chemiluminescence holoenzyme assay (Kinase Glo, IC50 determination); conditions: Table 1 activity class; symbol given only if active; read-out: CK2 IC50 (Activity C)
Chain of CK2 (P68400 whole entry): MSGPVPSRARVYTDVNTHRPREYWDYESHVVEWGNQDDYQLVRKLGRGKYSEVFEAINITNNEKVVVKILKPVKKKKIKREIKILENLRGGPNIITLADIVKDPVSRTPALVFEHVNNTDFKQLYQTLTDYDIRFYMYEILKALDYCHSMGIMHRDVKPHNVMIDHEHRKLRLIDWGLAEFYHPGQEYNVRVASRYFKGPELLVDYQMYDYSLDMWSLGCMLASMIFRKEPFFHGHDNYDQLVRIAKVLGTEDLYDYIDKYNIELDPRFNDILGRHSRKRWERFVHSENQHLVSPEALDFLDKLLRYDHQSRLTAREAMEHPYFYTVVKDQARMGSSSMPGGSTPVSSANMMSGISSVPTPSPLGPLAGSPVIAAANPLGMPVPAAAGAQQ
Chain of CK2 (P67870 whole entry partner): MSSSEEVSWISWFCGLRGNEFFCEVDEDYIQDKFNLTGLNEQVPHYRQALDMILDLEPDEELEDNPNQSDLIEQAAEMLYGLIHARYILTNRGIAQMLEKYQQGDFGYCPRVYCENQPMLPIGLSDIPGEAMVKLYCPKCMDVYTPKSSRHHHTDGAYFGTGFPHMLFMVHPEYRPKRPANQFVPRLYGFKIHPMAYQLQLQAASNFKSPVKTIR
Outline: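 Holoenzyme CK2 assay; compounds pre-incubated with substrate and enzyme, then reacted 150 min at 24-27° C. Remaining ATP measured as luminescence with Kinase Glo, and IC50 derived from the signal.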

[2] = Table 1 activity class, symbol given only if active, read-out: CDC7 IC50 (Activity A)
[3] = compounds in Table 1, read-out: CDC7 IC50 value

O=c1[nH]c(C2CCCNC2)nc2c1oc1ccc(Br)cc12 (stereo not shown) [Compound 158, 8-Bromo-2-piperidin-3-yl[1]benzofuro[3,2-d]pyrimidin-4(3H)-one]
IC50 [1]: < 10 µM | IC50 (CDC7; [2]): < 10 µM | IC50 (CDC7; [3]): < 0.1 µM | IC50 (CK2): < 10 µM

CN(C)CCCC(=O)Nc1ccc(-c2nc3c(oc4ccc(Br)cc43)c(=O)[nH]2)c(Cl)c1 [Compound 160, N-[4-(8-bromo-4-oxo-3,4-dihydro[1]benzofuro[3,2-d]pyrimidin-2-yl)-3-chlorophenyl]-4-(dimethylamino)butanamide]
IC50 [1]: < 10 µM | IC50 (CDC7; [2]): < 10 µM | IC50 (CK2): < 10 µM

O=C(Nc1ccc(-c2nc3c(oc4ccc(Br)cc43)c(=O)[nH]2)c(Cl)c1)C1CCNCC1 [Compound 161, N-[4-(8-bromo-4-oxo-3,4-dihydro[1]benzofuro[3,2-d]pyrimidin-2-yl)-3-chlorophenyl]piperidine-4-carboxamide]
IC50 [1]: < 10 µM | IC50 (CDC7; [2]): < 10 µM | IC50 (CK2): < 10 µM

O=c1[nH]c(CNCCc2ccncc2)nc2c1oc1ccc(Br)cc12 [Compound 166, 8-bromo-2-{[(2-pyridin-4-ylethyl)amino]methyl}[1]benzofuro[3,2-d]pyrimidin-4(3H)-one]
IC50 [1]: < 10 µM | IC50 (CDC7; [2]): < 10 µM | IC50 (CDC7; [3]): < 0.1 µM | IC50 (CK2): < 10 µM

O=c1[nH]c(C2CCCN2)nc2c1oc1ccc(Br)cc12 (stereo not shown) [Compound 169, 8-bromo-2-pyrrolidin-2-yl[1]benzofuro[3,2-d]pyrimidin-4(3H)-one]
IC50 [1]: < 10 µM | IC50 (CDC7; [2]): < 10 µM | IC50 (CDC7; [3]): < 0.1 µM | IC50 (CK2): < 10 µM

Nc1cc(-c2nc3c(oc4ccc(Br)cc43)c(=O)[nH]2)c(Cl)cn1 [Compound 173, 2-(2-amino-5-chloropyridin-4-yl)-8-bromo[1]benzofuro[3,2-d]pyrimidin-4(3H)-one]
IC50 [1]: < 10 µM | IC50 (CDC7; [2]): < 10 µM | IC50 (CDC7; [3]): < 0.1 µM | IC50 (CK2): < 10 µM

NC(c1ccccc1)c1nc2c(oc3ccc(Br)cc32)c(=O)[nH]1 (stereo not shown) [Compound 174, 2-[amino(phenyl)methyl]-8-bromo[1]benzofuro[3,2-d]pyrimidin-4(3H)-one]
IC50 [1]: < 10 µM | IC50 (CDC7; [2]): < 10 µM | IC50 (CDC7; [3]): < 0.1 µM | IC50 (CK2): < 10 µM

CC(N)c1nc2c(oc3ccc(Br)cc32)c(=O)[nH]1 (stereo not shown) [Compound 175, 2-(1-aminoethyl)-8-bromo[1]benzofuro[3,2-d]pyrimidin-4(3H)-one]
IC50 [1]: < 10 µM | IC50 (CDC7; [2]): < 10 µM | IC50 (CDC7; [3]): < 0.1 µM | IC50 (CK2): < 10 µM

O=C(Nc1ccc(-c2nc3c(oc4ccc(Br)cc43)c(=O)[nH]2)c(Cl)c1)C1CCNC1 (stereo not shown) [Compound 178, N-[4-(8-bromo-4-oxo-3,4-dihydro[1]benzofuro[3,2-d]pyrimidin-2-yl)-3-chlorophenyl]pyrrolidine-3-carboxamide]
IC50 [1]: < 10 µM | IC50 (CDC7; [2]): < 10 µM | IC50 (CK2): < 10 µM

O=C(Cc1c[nH]cn1)Nc1ccc(-c2nc3c(oc4ccc(Br)cc43)c(=O)[nH]2)c(Cl)c1 [Compound 182, N-[4-(8-bromo-4-oxo-3,4-dihydro[1]benzofuro[3,2-d]pyrimidin-2-yl)-3-chlorophenyl]-2-(1H-imidazol-4-yl)acetamide]
IC50 [1]: < 10 µM | IC50 (CDC7; [2]): < 10 µM | IC50 (CK2): < 10 µM

CN1CCCC(c2nc3c(oc4ccc(Br)cc43)c(=O)[nH]2)C1 (stereo not shown) [Compound 184, dihydrochloride]
IC50 [1]: < 10 µM | IC50 (CDC7; [2]): < 10 µM | IC50 (CDC7; [3]): < 0.1 µM | IC50 (CK2): < 10 µM

CN1CCC(c2nc3c(oc4ccc(Br)cc43)c(=O)[nH]2)CC1 [Compound 185, 8-Bromo-2-(1-methylpiperidin-4-yl)[1]benzofuro[3,2-d]pyrimidin-4(3H)-one]
IC50 [1]: < 10 µM | IC50 (CDC7; [2]): < 10 µM | IC50 (CDC7; [3]): < 0.1 µM | IC50 (CK2): < 10 µM

O=c1[nH]c(C2CCNC2)nc2c1oc1ccc(Br)cc12 (stereo not shown) [Compound 186, 8-bromo-2-pyrrolidin-3-yl[1]benzofuro[3,2-d]pyrimidin-4(3H)-one]
IC50 [1]: < 10 µM | IC50 (CDC7; [2]): < 10 µM | IC50 (CDC7; [3]): < 0.1 µM | IC50 (CK2): < 10 µM

CC(C)(NCc1nc2c(oc3ccc(Br)cc32)c(=O)[nH]1)C(=O)O [Compound 189, N-[(8-bromo-4-oxo-3,4-dihydro[1]benzofuro[3,2-d]pyrimidin-2-yl)methyl]-2-methylalanine]
IC50 [1]: < 10 µM | IC50 (CDC7; [2]): < 10 µM | IC50 (CK2): < 10 µM

CC(C)(CN1CCCCC1)NCc1nc2c(oc3ccc(Br)cc32)c(=O)[nH]1 [Compound 191, 8-bromo-2-{[(1,1-dimethyl-2-piperidin-1-ylethyl)amino]methyl}[1]benzofuro[3,2-d]pyrimidin-4(3H)-one]
IC50 [1]: < 10 µM | IC50 (CDC7; [2]): < 10 µM | IC50 (CDC7; [3]): < 0.1 µM | IC50 (CK2): < 10 µM

O=c1[nH]c(CC2CCCNC2)nc2c1oc1ccc(Br)cc12 (stereo not shown) [Compound 194, 8-bromo-2-(piperidin-3-ylmethyl)[1]benzofuro[3,2-d]pyrimidin-4(3H)-one]
IC50 [1]: < 10 µM | IC50 (CDC7; [2]): < 10 µM | IC50 (CK2): < 10 µM

NCc1nc2c(oc3ccc(Br)cc32)c(=O)[nH]1 [Compound 195, 2-(aminomethyl)-8-bromo[1]benzofuro[3,2-d]pyrimidin-4(3H)-one]
IC50 [1]: < 10 µM | IC50 (CDC7; [2]): < 10 µM | IC50 (CK2): < 10 µM

O=c1[nH]c(-c2ccc(NCCC3CCNCC3)cc2Cl)nc2c1oc1ccc(Br)cc12 [Compound 197, 8-bromo-2-{2-chloro-4-[(2-piperidin-4-ylethyl)amino]phenyl}[1]benzofuro[3,2-d]pyrimidin-4(3H)-one]
IC50 [1]: < 10 µM | IC50 (CDC7; [2]): < 10 µM | IC50 (CK2): < 10 µM

O=c1[nH]c(C2CNC2)nc2c1oc1ccc(Br)cc12 [Compound 198, 2-Azetidin-3-yl-8-bromo[1]benzofuro[3,2-d]pyrimidin-4(3H)-one]
IC50 [1]: < 10 µM | IC50 (CDC7; [2]): < 10 µM | IC50 (CDC7; [3]): < 0.1 µM | IC50 (CK2): < 10 µM

O=c1[nH]c(CNC2CCCC2)nc2c1oc1ccc(Br)cc12 [Compound 199, 8-bromo-2-[(cyclopentylamino)methyl][1]benzofuro[3,2-d]pyrimidin-4(3H)-one]
IC50 [1]: < 10 µM | IC50 (CDC7; [2]): < 10 µM | IC50 (CDC7; [3]): < 0.1 µM | IC50 (CK2): < 10 µM

CC1CCN(Cc2nc3c(oc4ccc(Br)cc43)c(=O)[nH]2)CC1 [Compound 201, 8-bromo-2-[(4-methylpiperidin-1-yl)methyl][1]benzofuro[3,2-d]pyrimidin-4(3H)-one]
IC50 [1]: < 10 µM | IC50 (CDC7; [2]): < 10 µM | IC50 (CDC7; [3]): < 0.1 µM | IC50 (CK2): < 10 µM

Nc1n[nH]c2cc(-c3nc4c(oc5ccc(Br)cc54)c(=O)[nH]3)c(Cl)cc12 [Compound 205, 2-(3-amino-5-chloro-1H-indazol-6-yl)-8-bromo[1]benzofuro[3,2-d]pyrimidin-4(3H)-one]
IC50 [1]: < 10 µM | IC50 (CDC7; [2]): < 10 µM | IC50 (CK2): < 10 µM

O=c1[nH]c(Nc2cccnc2)nc2c1oc1ccc(Br)cc12 [Compound 214, 8-bromo-2-(pyridin-3-ylamino)[1]benzofuro[3,2-d]pyrimidin-4(3H)-one]
IC50 [1]: < 10 µM | IC50 (CDC7; [2]): < 10 µM | IC50 (CDC7; [3]): < 0.1 µM | IC50 (CK2): < 10 µM

C[C@@H]1CNC[C@H](C)N1Cc1nc2c(oc3ccc(Br)cc32)c(=O)[nH]1 [Compound 216, 8-bromo-2-{[(2R,6S)-2,6-dimethylpiperazin-1-yl]methyl}[1]benzofuro[3,2-d]pyrimidin-4(3H)-one]
IC50 [1]: < 10 µM | IC50 (CDC7; [2]): < 10 µM | IC50 (CDC7; [3]): < 0.1 µM | IC50 (CK2): < 10 µM

O=C(CC1CCNCC1)Nc1ccc(-c2nc3c(oc4ccc(Br)cc43)c(=O)[nH]2)c(Cl)c1 [Compound 217, N-[4-(8-bromo-4-oxo-3,4-dihydro[1]benzofuro[3,2-d]pyrimidin-2-yl)-3-chlorophenyl]-2-piperidin-4-ylacetamide]
IC50 [1]: < 10 µM | IC50 (CDC7; [2]): < 10 µM | IC50 (CK2): < 10 µM

Nc1n[nH]c2ccc(-c3nc4c(oc5ccc(Br)cc54)c(=O)[nH]3)cc12 [Compound 220, 2-(3-amino-1H-indazol-5-yl)-8-bromo[1]benzofuro[3,2-d]pyrimidin-4(3H)-one]
IC50 [1]: < 10 µM | IC50 (CDC7; [2]): < 10 µM | IC50 (CK2): < 10 µM

CN1CC(c2nc3c(oc4ccc(Br)cc43)c(=O)[nH]2)C1 [Compound 221, 8-Bromo-2-(1-methylazetidin-3-yl)[1]benzofuro[3,2-d]pyrimidin-4(3H)-one]
IC50 [1]: < 10 µM | IC50 (CDC7; [2]): < 10 µM | IC50 (CDC7; [3]): < 0.1 µM | IC50 (CK2): < 10 µM

NC1CCC(c2nc3c(oc4ccc(Br)cc43)c(=O)[nH]2)CC1 (stereo not shown) [Compound 223, 2-(4-Aminocyclohexyl)-8-bromo[1]benzofuro[3,2-d]pyrimidin-4(3H)-one]
IC50 [1]: < 10 µM | IC50 (CDC7; [2]): < 10 µM | IC50 (CDC7; [3]): < 0.1 µM | IC50 (CK2): < 10 µM

O=C(NCc1ccccc1Cl)C1CCN(Cc2nc3c(oc4ccc(Br)cc43)c(=O)[nH]2)C1 (stereo not shown) [Compound 224, 1-[(8-bromo-4-oxo-3,4-dihydro[1]benzofuro[3,2-d]pyrimidin-2-yl)methyl]-N-[(2-chlorophenyl)methyl]pyrrolidine-3-carboxamide]
IC50 [1]: < 10 µM | IC50 (CDC7; [2]): < 10 µM | IC50 (CK2): < 10 µM

NCCNc1nc2c(oc3ccc(Br)cc32)c(=O)[nH]1 [Compound 231, 2-[(2-aminoethyl)amino]-8-bromo[1]benzofuro[3,2-d]pyrimidin-4(3H)-one]
IC50 [1]: < 10 µM | IC50 (CDC7; [2]): < 10 µM | IC50 (CDC7; [3]): < 0.1 µM | IC50 (CK2): < 10 µM

CCC(C)NCc1nc2c(oc3ccc(Br)cc32)c(=O)[nH]1 (stereo not shown) [Compound 232, 8-bromo-2-{[(1-methylpropyl)amino]methyl}[1]benzofuro[3,2-d]pyrimidin-4(3H)-one]
IC50 [1]: < 10 µM | IC50 (CDC7; [2]): < 10 µM | IC50 (CDC7; [3]): < 0.1 µM | IC50 (CK2): < 10 µM
